According to US20170305943A1, “COMPOUNDS FOR THE TREATMENT OF BACTERIAL INFECTIONS” (priority 2014, published 2017):
Values after ≈ are worked out from the molar mass of the structure shown.

How the values were obtained:
Assay in all cases: Bacterial Assay: Determination of Antibacterial Activity (MIC, broth microdilution or agar dilution)
Assay type in all cases: cell-based
[1] = tested on: Clostridium difficile (Isolate ID ATCC 9689); conditions: Clostridioides difficile, ATCC9689, 48 h, read-out: C. difficile MIC Activity Range
Procedure, shortened: (§1)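 MICs were set by CLSI broth microdilution or agar dilution for anaerobes, read visually after 48 hours at 37° C. under anaerobic gas packs. Medium was reinforced clostridial medium with 0.1% defibrinated horse blood; values are binned as A ≦1.01, B >1.0-4.0, C >4.0-16 μg/mL.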

[2] = tested on: Clostridium difficile (Isolate ID BI-9); conditions: Clostridioides difficile, 48 h, read-out: MIC (μg/mL) C. difficile (B-I9)
Procedure, shortened: as §1

[3] = tested on: Clostridium difficile (Isolate ID 027-01); conditions: Clostridioides difficile, 48 h, read-out: MIC (μg/mL) C. difficile (027-01)
Procedure, shortened: as §1

SMILES | MIC [1] [µg/mL] | MIC [2] [µg/mL] | MIC [3] [µg/mL]
NC(=O)c1c(F)ccc(O[C@H](CO)c2nc(-c3ccc(C(F)(F)F)cc3)c(Br)o2)c1F (single isomer, unassigned) [Compound 47] | < 1.01 | 0.12 (≈ 0.237 µM) | 0.12 (≈ 0.237 µM)
C#CCCCCCCCCCOc1ccc(F)c(C(N)=O)c1F [Compound 7, 2,6-difluoro-3-(undec-10-yn-1-yloxy)benzamide] | < 1.01 | 0.12 (≈ 0.371 µM) | 0.12 (≈ 0.371 µM)
CCCCCCCCCOc1cccc(C(N)=O)c1F [Compound 8, 2-fluoro-3-(nonyloxy)benzamide] | < 1.01 | 0.25 (≈ 0.889 µM) | 0.5 (≈ 1.78 µM)
C#CCCCCCCCCCOc1cccc(C(N)=O)c1F [Compound 9, 2-fluoro-3-(undec-10-yn-1-yloxy)benzamide] | < 1.01 | 0.5 (≈ 1.64 µM) | 1 (≈ 3.27 µM)
COc1ccc(-c2csc(COc3ccc(F)c(C(N)=O)c3F)n2)cc1 [Compound 10, 2,6-difluoro-3-{[4-(4-methoxyphenyl)-1,3-thiazol-2-yl]methoxy}benzamide] | 1 to 4 (≈ 2.66 to 10.6 µM) | 2 (≈ 5.31 µM) | 4 (≈ 10.6 µM)
NC(=O)c1c(F)ccc(OCc2nc(-c3ccc(Cl)cc3)cs2)c1F [Compound 11, 3-{[4-(4-chlorophenyl)-1,3-thiazol-2-yl]methoxy}-2,6-difluorobenzamide] | < 1.01 | 0.25 (≈ 0.657 µM) | 0.25 (≈ 0.657 µM)
NC(=O)c1c(F)ccc(OCc2nc(-c3ccc(Cl)cc3)c(Br)s2)c1F [Compound 12, 3-{[5-bromo-4-(4-chlorophenyl)-1,3-thiazol-2-yl]methoxy}-2,6-difluorobenzamide] | < 1.01 | 1 (≈ 2.18 µM) | 1 (≈ 2.18 µM)
NC(=O)c1c(F)ccc(OCc2nc(-c3ccc(C(F)(F)F)cc3)cs2)c1F [Compound 16, 2,6-difluoro-3-({4-[4-(trifluoromethyl)phenyl]-1,3-thiazol-2-yl}methoxy)benzamide] | < 1.01 | 0.5 (≈ 1.21 µM) | 0.5 (≈ 1.21 µM)
NC(=O)c1c(F)ccc(OCCCCOc2ccc(Cl)c(Cl)c2)c1F [Compound 171, 3-[4-(3,4-dichlorophenoxy)butoxy]-2,6-difluorobenzamide] | < 1.01 | – | –
NC(=O)c1c(F)ccc(OCCCCOc2cccc(Br)c2)c1F [Compound 172, 3-[4-(3-bromophenoxy)butoxy]-2,6-difluorobenzamide] | 1 to 4 (≈ 2.5 to 9.99 µM) | – | –
N#Cc1cccc(OCCCCOc2ccc(F)c(C(N)=O)c2F)c1 [Compound 173, 3-[4-(3-cyanophenoxy)butoxy]-2,6-difluorobenzamide] | 4 to 16 (≈ 11.5 to 46.2 µM) | – | –
NC(=O)c1c(F)ccc(OCCCCOc2cccc(S(F)(F)(F)(F)F)c2)c1F [Compound 174, 2,6-difluoro-3-{4-[3-(pentafluoro-lambda~6~- sulfanyl)phenoxy]butoxy}benzamide] | < 1.01 | – | –
CC(C)(C)c1ccc(OCCCCOc2ccc(F)c(C(N)=O)c2F)cc1 [Compound 175, 3-[4-(4-tert-butylphenoxy)butoxy]-2,6-difluorobenzamide] | < 1.01 | – | –
NC(=O)c1c(F)ccc(OCCCCOc2ccc(Br)cc2)c1F [Compound 176, 3-[4-(4-bromophenoxy)butoxy]-2,6-difluorobenzamide] | < 1.01 | – | –
N#Cc1ccc(OCCCCOc2ccc(F)c(C(N)=O)c2F)cc1 [Compound 177, 3-[4-(4-cyanophenoxy)butoxy]-2,6-difluorobenzamide] | 1 to 4 (≈ 2.89 to 11.5 µM) | – | –
N/C(=N\O)c1c(F)ccc(OCCCCOc2ccc(C(F)(F)F)cn2)c1F [Compound 178, 2,6-difluoro-N′-hydroxy-3-(4-{[5-(trifluoromethyl)pyridin-2-yl]oxy}butoxy)benzenecarboximidamide] | 4 to 16 (≈ 9.87 to 39.5 µM) | – | –
NC(=O)c1c(F)ccc(NCCCCOc2ccc(C(F)(F)F)cn2)c1F [Compound 179, 2,6-difluoro-3-[(4-{[5-(trifluoromethyl)pyridin-2-yl]oxy}butyl)amino]benzamide] | 4 to 16 (≈ 10.3 to 41.1 µM) | – | –
CN(CCCCOc1ccc(C(F)(F)F)cn1)c1ccc(F)c(C(N)=O)c1F [Compound 180, 2,6-difluoro-3-[methyl(4-{[5-(trifluoromethyl)pyridin-2-yl]oxy}butyl)amino]benzamide] | 1 to 4 (≈ 2.48 to 9.92 µM) | – | –
NC(=O)c1c(F)ccc(N(CCO)CCCCOc2ccc(OC(F)(F)F)cc2)c1F [Compound 181, 2,6-difluoro-3-[(2-hydroxyethyl){4-[4-(trifluoromethoxy)phenoxy]butyl}amino] benzamide] | 1 to 4 (≈ 2.23 to 8.92 µM) | – | –
N#CCCCN(CCCCOc1ccc(OC(F)(F)F)cc1)c1ccc(F)c(C(N)=O)c1F [Compound 182, 3-[(3-cyanopropyl){4-[4-(trifluoromethoxy)phenoxy]butyl)amino]-2,6-difluorobenzamide] | 4 to 16 (≈ 8.48 to 33.9 µM) | – | –

SMILES | MIC [1] [µg/mL] | MIC [2] [µg/mL] | MIC [3] [µg/mL]
NC(=O)CN(CCCCOc1ccc(OC(F)(F)F)cc1)c1ccc(F)c(C(N)=O)c1F [Compound 183, 3-[(2-amino-2-oxoethyl){4-[4-(trifluoromethoxy)phenoxy]butyl}amino]-2,6-difluorobenzamide] | 4 to 16 (≈ 8.67 to 34.7 µM) | – | –
COCCN(CCCCOc1ccc(OC(F)(F)F)cc1)c1ccc(F)c(C(N)=O)c1F [Compound 184, 2,6-difluoro-3-[(2-methoxyethyl){4-[4-(trifluoromethoxy)phenoxy]butyl}amino]benzamide] | 1 to 4 (≈ 2.16 to 8.65 µM) | – | –
Cc1ccc(CN(CCCCOc2ccc(OC(F)(F)F)cc2)c2ccc(F)c(C(N)=O)c2F)cn1 [Compound 185, 2,6-difluoro-3-([(6-methylpyridin-3-yl)methyl]{4-[4-(trifluoromethoxy)phenoxy]butyl}amino)benzamide] | 4 to 16 (≈ 7.85 to 31.4 µM) | – | –
CCOC(=O)CN(CCCCOc1ccc(OC(F)(F)F)cc1)c1ccc(F)c(C(N)=O)c1F [Compound 186, ethyl N-(3-carbamoyl-2,4-difluorophenyl)-N-{4-[4-(trifluoromethoxy)phenoxy]butyl}glycinate] | 1 to 4 (≈ 2.04 to 8.16 µM) | – | –
NC(=O)c1c(F)ccc(N(CCCCOc2ccc(OC(F)(F)F)cc2)CC(=O)O)c1F [Compound 187, N-(3-carbamoyl-2,4-difluorophenyl)-N-{4-[4-(trifluoromethoxy)phenoxy]butyl}glycine] | 4 to 16 (≈ 8.65 to 34.6 µM) | – | –
NC(=O)c1c(F)ccc(OCc2cc(-c3ccc(Cl)cc3)cs2)c1F [Compound 188, 3-{[4-(4-chlorophenyl)thiophen-2-yl]methoxy}-2,6-difluorobenzamide] | < 1.01 | – | –
CCOC(=O)c1cc(Cl)ccc1-c1csc(COc2ccc(F)c(C(N)=O)c2F)n1 [Compound 190, ethyl 2-{2-[(3-carbamoyl-2,4-difluorophenoxy)methyl]-1,3-thiazol-4-yl}-5-chlorobenzoate] | 4 to 16 (≈ 8.83 to 35.3 µM) | – | –
COc1ccc(-c2nc(COc3ccc(F)c(C(N)=O)c3F)sc2-c2cccc(Cl)c2O)cc1 [Compound 191, 3-{[5-(3-chloro-2-hydroxyphenyl)-4-(4-methoxyphenyl)-1,3-thiazol-2-yl]methoxy}-2,6-difluorobenzamide] | 4 to 16 (≈ 7.95 to 31.8 µM) | – | –
COc1cc(-c2csc(COc3ccc(F)c(C(N)=O)c3F)n2)ccc1Cl [Compound 195, 3-{[4-(4-chloro-3-methoxyphenyl)-1,3-thiazol-2-yl]methoxy}-2,6-difluorobenzamide] | 4 to 16 (≈ 9.74 to 38.9 µM) | – | –
NC(=O)c1c(F)ccc(OCc2nc(-c3ccc(Cl)c(O)c3)cs2)c1F [Compound 196, 3-{[4-(4-chloro-3-hydroxyphenyl)-1,3-thiazol-2-yl]methoxy}-2,6-difluorobenzamide] | 1 to 4 (≈ 2.52 to 10.1 µM) | – | –
COc1ccc(C#Cc2csc(COc3ccc(F)c(C(N)=O)c3F)n2)cc1 [Compound 197, 2,6-difluoro-3-({4-[(4-methoxyphenyl)ethynyl]-1,3-thiazol-2-yl}methoxy)benzamide] | < 1.01 | – | –
NC(=O)c1c(F)ccc(OCc2nc(CCc3cccc(Cl)c3)cs2)c1F [Compound 199, 3-({4-[2-(3-chlorophenyl)ethyl]-1,3-thiazol-2-yl}methoxy)-2,6-difluorobenzamide] | < 1.01 | – | –
Cc1nn(-c2ccc(Cl)cc2)nc1COc1ccc(F)c(C(N)=O)c1F [Compound 200, 3-{[2-(4-chlorophenyl)-5-methyl-2H-1,2,3-triazol-4-yl]methoxy}-2,6-difluorobenzamide] | 1 to 4 (≈ 2.64 to 10.6 µM) | – | –
NC(=O)c1c(F)ccc(OCc2nc(-c3ccc(Cl)nc3)cs2)c1F [Compound 201, 3-{[4-(6-chloropyridin-3-yl)-1,3-thiazol-2-yl]methoxy}-2,6-difluorobenzamide] | 1 to 4 (≈ 2.62 to 10.5 µM) | – | –
NC(=O)c1c(F)ccc(OCc2cnn(-c3ccc(Cl)cc3)n2)c1F [Compound 202, 3-{[2-(4-chlorophenyl)-2H-1,2,3-triazol-4-yl]methoxy}-2,6-difluorobenzamide] | 1 to 4 (≈ 2.74 to 11 µM) | – | –
COc1ccc(-c2nc(COc3ccc(F)c(C(N)=O)c3F)oc2-c2cccc(Cl)c2O)cc1 [Compound 204, 3-{[5-(3-chloro-2-hydroxyphenyl)-4-(4-methoxyphenyl)-1,3-oxazol-2-yl]methoxy}-2,6-difluorobenzamide] | 4 to 16 (≈ 8.22 to 32.9 µM) | – | –
N#Cc1cc(Cl)ccc1-c1csc(COc2ccc(F)c(C(N)=O)c2F)n1 [Compound 206, 3-{[4-(4-chloro-2-cyanophenyl)-1,3-thiazol-2-yl]methoxy}-2,6-difluorobenzamide] | < 1.01 | – | –
NC(=O)c1c(F)ccc(OCc2nc(-c3ccc(Cl)cc3)c(-c3cccc(O)c3)o2)c1F [Compound 210, 3-{[4-(4-chlorophenyl)-5-(3-hydroxyphenyl)-1,3-oxazol-2-yl]methoxy}-2,6-difluorobenzamide] | 4 to 16 (≈ 8.76 to 35 µM) | – | –
NC(=O)c1c(F)ccc(OCc2nc(-c3ccc(C(F)(F)F)cc3)c(Br)s2)c1F [Compound 211, 3-({5-bromo-4-[4-(trifluoromethyl)phenyl]-1,3-thiazol-2-yl}methoxy)-2,6-difluorobenzamide] | 1 to 4 (≈ 2.03 to 8.11 µM) | – | –
CC(Nc1ccc(F)c(C(N)=O)c1F)c1nc(-c2ccc(OC(F)(F)F)cc2)c(Br)o1 (centres unmarked) [Compound 212, 3-[(1-{5-bromo-4-[4-(trifluoromethoxy)phenyl]-1,3-oxazol-2-yl}ethyl)amino]-2,6-difluorobenzamide] | 1 to 4 (≈ 1.98 to 7.9 µM) | – | –
